US10537566B2, “Combinations comprising siponimod and laquinimod for the treatment of multiple sclerosis” (Novartis AG, priority 2014, dated 2020)
Read-outs that look alike come from different tables or passages of the source.

How the values were obtained:
[1] = test system: experimental autoimmune encephalomyelitis (EAE); test: MOG/CFA/Pertussis toxin-induced EAE, treatment initiated during ongoing CNS damage; assay type: in vivo, C57Bl/6 mice; conditions: 0.3 mg/kg siponimod, 10 mg/kg laquinimod or both, daily for 21 days after infiltration of immune cells into CNS; p<0.05
Experimental: (§1) Female C57Bl/6 mice were subcutaneously immunized with 200 μg recombinant MOG1-125 in CFA followed by one i.p. injection of 100 ng Pertussis toxin. Two days later an additional i.p. injection of 100 ng pertussis toxin was administered. Following infiltration of immune cells into the CNS to initiate tissue damage, the mice were randomized to either vehicle, 0.3 mg/kg siponimod, 10 mg/kg laquinimod or 0.3 mg/kg siponimod+10 mg/kg laquinimod and treated daily with said doses for 21 days.

[2] = Level of siponimod in blood, brain and cerebrospinal fluid (CSF) in mice; assay type: in vivo; conditions: female, mouse, C57Bl/6 mice, mean (SEM)
Experimental: Female C57Bl/6 mice were treated daily with 3 mg/kg siponimod, p.o. for 8 days. 8 hours after the last administration, animals were sacrificed and the levels of siponimod were measured in blood, brain and CSF.
Shown are mean values of 3-5 animals and standard error of the mean (in brackets).

lymphocytes = test: Lymphocyte reduction in MOG/CFA/Pertussis toxin-immunized C57/Bl6 mice; assay type: in vivo, C57Bl/6 mice; conditions: 0.3 mg/kg siponimod, 10 mg/kg laquinimod or both, daily for 29 days, from three days after first clinical symptoms; p<0.05
Experimental: as §1, with “Three days after” for “Following infiltration of immune cells into”, “first clinical symptoms,” for “CNS to initiate tissue damage,”, “29” for “21”, “days. The MOG/CFA/Pertussis toxin-induced experimental autoimmune encephalomyelitis model in C57/Bl6 mice is described in Quancard et al (Chem Biol. 19(9):1142-51, 2012).” for “days.”

[3] = test system: experimental autoimmune encephalomyelitis (EAE); test: MOG/CFA/Pertussis toxin-induced EAE, treatment initiated after severe CNS damage; assay type: in vivo, C57Bl/6 mice; conditions: 0.3 mg/kg siponimod, 10 mg/kg laquinimod or both, daily for 30 days, from three days after first clinical symptoms; p<0.05
Experimental: Female C57Bl/6 mice were subcutaneously immunized with 200 μg recombinant MOG1-125 in CFA followed by one i.p. injection of 100 ng Pertussis toxin. Two days later an additional i.p. injection of 100 ng pertussis toxin was administered. Three days after the first clinical symptoms, the mice were randomized to either vehicle, 0.3 mg/kg siponimod, 10 mg/kg laquinimod or 0.3 mg/kg siponimod+10 mg/kg laquinimod and treated daily with said doses for 30 days. Treatment initiated after severe CNSneurological disease and tissue damage has occurred. More specifically after that a severe CNS damage, which can be characterized by hind limb paralysis, had already occurred.

RRMS [4] = conditions: phase II, oral doses of 0.25 mg, 0.5 mg, 1.25 mg, 2 mg and 10 mg; cited from earlier work
RRMS [5] = conditions: phase III, oral 0.6 mg once daily over 24 months; cited from earlier work

SMILES | daily disease severity / neurological paralysis / disease burden (FIG. 4) [1] | concentration at 8 h ([2]; CSF, oral, EAE, 3 mg/kg qd, day 8, 8 h, read-out: conc siponimod (nM) (SEM) CSF) | concentration at 8 h ([2]; CSF, po, 3 mg/kg qd p.o., day 8, 8 h after last administration, read-out: conc siponimod (nM) (SEM) CSF) | concentration at 8 h ([2]; blood, oral, EAE, 3 mg/kg qd, day 8, 8 h, read-out: conc siponimod (nM) (SEM) Blood) | concentration at 8 h ([2]; blood, po, 3 mg/kg qd p.o., day 8, 8 h after last administration, read-out: conc siponimod (nM) (SEM) Blood) | concentration at 8 h ([2]; brain, oral, EAE, 3 mg/kg qd, day 8, 8 h, read-out: conc siponimod (nM) (SEM) Brain) | concentration at 8 h ([2]; brain, po, 3 mg/kg qd p.o., day 8, 8 h after last administration, read-out: conc siponimod (nM) (SEM) Brain) | effect on lymphocytes (FIG. 1) (lymphocytes) | disease burden (cumulative EAE score) (FIG. 2) [3] | efficacy in treating RRMS (RRMS [4]) | efficacy in treating RRMS (RRMS [5])
CCc1cc(/C(C)=N/OCc2ccc(C3CCCCC3)c(C(F)(F)F)c2)ccc1CN1CC(C(=O)O)C1 [siponimod, 1-{4-[1-((E)-4-cyclohexyl-3-trifluoromethyl-benzyloxyimino)-ethyl]-2-ethyl-benzyl}-azetidine-3-carboxylic acid] | transiently reduced neurological paralysis | 17.7 nM | 7.2 nM | 1600 nM | 973 nM | 9190 nM | 5550 nM | reduced lymphocytes | reduced disease burden | dose-dependent efficacy | –
CCN(C(=O)c1c(O)c2c(Cl)cccc2n(C)c1=O)c1ccccc1 [laquinimod, 5-chloro-N-ethyl-4-hydroxy-1-methyl-2-oxo-N-phenyl-1,2-dihydroquinoline-3-carboxamide] | did not significantly improve daily disease severity | – | – | – | – | – | – | did not significantly reduce lymphocytes | did not significantly improve disease burden | – | showed efficacy
